Reference: patent publication US20050208542A1, “Methods of genotoxicity screening, and biosensors” (priority 2004, published 2005)

How the values were obtained:
CT-ds-DNA = assay: SWV of Ru/Mb/DNA films (PSS/ClRu-PVP/CT-ds-DNA/(Mb/CT-ds-DNA)2) after incubation; settings: for SWV peak current at 0.75 V: saturated styrene or toluene and H2O2, pH 5.5
Experimental: Film Assembly. Basal plane PG electrodes were polished with 400-grit SiC paper and then ultrasonicated for 30 seconds each in ethanol and then in water. Electrodes were dried in nitrogen and dipped into 6 mg mL^−1 PSS containing 0.5 M NaCl for 15 min. After washing with water, these PG electrodes were then dipped into 0.05% (m/V) [Ru(bpy)2(PVP)10Cl)]Cl (denoted hereafter as CIRu-PVP) in 5% ethanol/water for 15 minutes. Adsorption for 15 min provides steady-state adsorption of PSS on oppositely charged surfaces.^18, 19
After fabricating PSS/CIRu-PVP films, electrodes were dipped into 2 mg mL^−1 CT ds-DNA in pH 7.0 Tris buffer containing 0.5 M NaCl for 15 min, rinsed with water, and then dipped into 2 mg mL^−1 PDDA. Alternate adsorption cycles were repeated until the desired number of layers were made. Final film structure is denoted as PSS/CIRu-PVP/CT-ds-DNA/PDDA/CT-ds-DNA.
For films containing Mb, PG electrodes were abraded with 400-grit SiC paper, rinsed with water, further roughened using medium Crystal Bay emery paper (PH4 3M 001K), and then ultrasonicted in ethanol and water successively for 30 seconds. […] Additional steps were the same as above except PDDA was replaced with 3 mg mL^−1 Mb in pH 5.5 buffer. Final film structure is denoted as PSS/CIRu-PVP/CT-ds-DNA/(Mb/CT-ds-DNA)2. Electrochemical surface area was estimated at 0.21 cm^2 using peak currents of soluble ferricyanide and the Randles-Sevcik equation.
H2O2 activates Mb to oxidize styrene to styrene oxide.

poly[G] = assay: ECL/SWV of (Ru-PVP/poly[G])2 films after incubation; type: biochemical; settings: 10 minutes incubation, saturated solution
Experimental: Reactions with Styrene Oxide.
In addition to catalytic oxidation of guanines, it is possible that adducts formed on DNA by reaction with styrene oxide could be catalytically oxidized by the ruthenium metallopolymer. To assess this possibility, styrene oxide was incubated with films containing individual polynucleotides and the metallopolymer. […] An 80% increase in SWV peak current and a 40% increase in ECL intensity was found.

ds-CT DNA = assay: ECL/SWV of (Ru-PVP/ds-DNA)2 films after incubation; settings: saturated solution, 37° C., pH 5.5
Experimental: Film assembly. DNA-redox polymer films were constructed by the layer-by-layer electrostatic assembly method. Basal plane PG electrodes were polished with 400 grit SiC paper and then with 0.3 μm α-alumina slurries on Buehler Microcloth, washed with water, sonicated in ethanol for 15 minutes, and then sonicated in water for 15 minutes. Layers were constructed by placing a 30 μL drop of 0.2% aqueous [Ru(bpy)2(PVP)10](CIO4)2 onto each PG electrode, allowing 15 minutes to achieve saturated adsorption and then washing with water. Subsequently, 30 μL of DNA solution (2 mg mL^−1 DNA in 5 mM pH 5.5 acetate buffer+0.05 M NaCl) was place on this PG surface, allowed to adsorb 15 min, and then washed with water. This sequence was repeated to obtain films with 2 redox polymer/DNA bilayers. Films containing ss-DNA and other polynucleotides were also assembled in this way. Assembly of films was monitored at each step with a quartz crystal microbalance.
Reactions with Styrene Oxide. Incubations of films were done in styrene oxide solutions in a stirred reactor at 37.0±0.5° C. […] PG electrodes coated with polynucleotide or DNA films were incubated in the stirred emulsion and then rinsed with water and transferred to the electro-chemical cell containing pH 5.5 buffer for SWV/ECL analysis.
Error bars in FIGS. 22, 23 are mainly the result of electrode-to-electrode variability.

ST ds-DNA = assay: Capillary electrophoretic analysis of hydrolyzed DNA reacted with styrene oxide; type: biochemical, salmon testes; settings: (PDDA/DNA)2 film on carbon cloth, saturated styrene oxide, 48 hr, 37° C., compared with undamaged hydrolyzed DNA
Experimental: (§1) Capillary electrophoretic analysis. A Beckman PACE 5000 with UV detector at 254 nm was used for capillary electrophoresis (CE) to analyze hydrolyzed DNA that had been reacted with styrene oxide. 1 mg mL^−1 ST ds-DNA in 50 mL buffer or (PDDA/DNA)2 films on 3×10 cm carbon cloth in solution were reacted in 50 mL buffer and 0.87 mmol styrene oxide at 37° C. with stirring. Reacted DNA in solution or in films was hydrolyzed by incubating with deoxyribonuclease I (0.1 mg per mg of DNA) for 20 hr at 37° C., followed by incubation with phosphodiesterase I (0.01 unit/mg DNA) and phosphatase, alkaline (0.6 unit/mg DNA) for 5 hours at 37° C. The resulting samples, consisting mainly of individual nucleosides, were analyzed using CE with 20 mM pH 7 phosphate buffer and 100 mM SDS. The capillary was 75 μm×50 cm, with a polyimide coating. To make standard styrene oxide adducts, 0.5 mg mL^−1 guanosine or adenosine were reacted with styrene oxide.
It was previously shown that that styrene oxide is formed from styrene using Mb and cyt P450cam films. However, available capillary electrophoresis and HPLC-MS/MS methods were not sensitive enough to detect and identify damaged DNA directly from the protein-DNA films. Thus, capillary electrophoresis and HPLC-MS were used to confirm that reaction of styrene oxide with DNA in (PDDA/DNA)2 films and in solution gave the reported DNA-styrene oxide adducts. […]

ds-ST-DNA = assay: HPLC-MS/MS of hydrolyzed DNA reacted with styrene oxide; type: biochemical, salmon testes; settings: ds-ST-DNA incubated with styrene oxide 48 hours at 37° C., HPLC-MS/MS (MRM)
Experimental: as §1
Liquid chromatography (LC)-mass spectrometry (MS). A Perkin-Elmer LC with diode-array (255 nm and 280 nm) and mass spectrometer (Micromass, Quattro II) detection were used. Full-scan spectra were taken at low cone voltage (15 V) in the positive ion mode (ESI). The HPLC column was Restek Ultra C-18 reversed-phase (i. d. 2.1 mm, length 10 cm, particle size 5 μm). Solvents were A: 5% acetonitrile/95% water with 0.05% TFA and B: 100% acetonitrile with 0.05% TFA. […]

ST-ds-DNA = assay: Catalytic SWV with Ru(bpy)3^2+ of DNA(Cyt P450cam/ST-ds-DNA)2 films after incubation
Experimental: (§2) Film construction. Films were grown on PG disks (pyrolytic graphite) that had been abraded on 400 grit SiC paper, then with coarse Emery paper (3M Crystal Bay), then ultrasonicated in water for 30 seconds. Layers of ds-DNA and protein were adsorbed alternately for 15 minutes onto the rough PG electrodes, and washed with water between adsorption steps. Adsorbate solutions were: (a) 2 mg mL^−1 DNA in 5 mM pH 7.1 TRIS buffer and 0.50 M NaCl; (b) 2 mg mL^−1 PDDA in 50 mM NaCl; (c) 3 mg mL^−1 Mb in 10 mM pH 5.5 acetate buffer; and (d) 1 mg mL^−1 cyt P450cam in the pH 5.5 buffer. Film of architecture denoted PDDA/DNA(/Mb/DNA)2 or PDDA/DNA(/cyt P450cam/DNA)2 were employed.
Incubation of DNA/protein films for metabolite generation and reaction with DNA was done in a thermostated vessel at 37° C. containing 1-4% styrene (by volume). To activate the enzymes for styrene oxide formation, 0.2 to 2 mM H2O2 was added to 10 mL pH 5.5 buffer containing 50 mM NaCl. After incubation, the electrodes were rinsed with water and transferred to pH 5.5 buffer containing 50 μM Ru(bpy)3^2+ for analysis by catalytic SWV.
(§3) Voltammetry. CH Instruments 660A and CH 430 electrochemical analyzers were used for square wave voltammetry (SWV), with ˜95% ohmic drop compensated. […]

ds-DNA [1] = assay: SWV with Co(bpy)3^3+ electroactive probe, PDDA/ds-DNA(/Mb/ds-DNA)2 films; type: biochemical, calf thymus (CT), salmon testes (ST)
Experimental: as §2
(§4) Incubation of DNA/protein films for metabolite generation and reaction with DNA was done in a thermostated vessel at 37° C. containing 1-4% styrene (by volume). To activate the enzymes for styrene oxide formation, 0.2 to 2 mM H2O2 was added to 10 mL pH 5.5 buffer containing 50 mM NaCl. […] For the probe binding method, washed electrodes were transferred to pH 5.5 buffer containing 20 μM Co(bpy)3^3+.
as §3
(§5) The time course of the reaction can readily be monitored via the ratio of initial SWV peak current for a given film (Ip,i) to that after reaction (Ip,f). […]

ds-CT-DNA = assay: SWV with Co(bpy)3^3+ electroactive probe, PDDA/ds-CT-DNA(cyt P450cam/ds-CT-DNA)2 films; settings: 4% styrene + 2 mM H2O2
Experimental: as §2, §4
CH Instruments 660A and CH 430 electrochemical analyzers were used for square wave voltammetry (SWV), with ˜95% ohmic drop compensated. […]
as §5

ds-DNA [2] = assay: Catalytic SWV with Ru(bpy)3^2+ of PDDA/ds-DNA(/Mb/ds-DNA)2 films after incubation; type: biochemical, calf thymus (CT), salmon testes (ST)

In the case of `Cc1ccccc1` [toluene], the “SWV peak current at 0.75 V” value (CT-ds-DNA) is reported as “did not show increases”, the “Increase in ECL intensity” value (poly[G]) is reported as “nearly identical to initial values” and the “Increase in SWV peak current” value (poly[G]) is reported as “nearly identical to initial values”. The “ECL peak vs. incubation time” value (ds-CT DNA) was “showed no trends with incubation time” and the “SWV peak vs. incubation time” value (ds-CT DNA) was “showed no trends with incubation time”.

With `c1ccc(C2CO2)cc1` (stereo not drawn) [styrene oxide] the “Increase in ECL intensity” value (poly[G]) was 40%, the “Increase in SWV peak current” value (poly[G]) was 80% and the “DNA-styrene oxide adduct peaks in capillary electropherogram” value (ST ds-DNA) was “new peaks evident”. For the same molecule, the “ECL peak vs. incubation time” value (ds-CT DNA) was “increases in the ECL and the SWV peaks were observed with increasing incubation time”, the “SWV peak vs. incubation time” value (ds-CT DNA) was “increases in the ECL and the SWV peaks were observed with increasing incubation time” and the “Number of styrene oxide adducts each for dA and dG” value (ds-ST-DNA) was “at least 4”.

`C=Cc1ccccc1` [styrene] was tested, and the “Ratio of final peak current after incubation to initial peak current” value (CT-ds-DNA; saturated styrene and H2O2, pH 5.5) was “showed an increase over the first 15 minutes and then decreased gradually”, the “SWV peak current at 0.75 V” value (CT-ds-DNA) was “increased” and the “Rate of increase of SWV peak current, less than with Mb/ST-DNA films” value (ST-ds-DNA; cyt P450cam films versus Mb/ST-DNA films, styrene and hydrogen peroxide) was “about 30%”. For the same molecule, the “SWV catalytic peak current (DNA damage)” value (ST-ds-DNA; cyt P450cam/ST-ds-DNA films, 2% styrene + 0.2 mM H2O2, 50 μM Ru(bpy)3^2+) was “rapid increase in SWV peak current for the first five minutes was followed by a slower increase from 5-30 minutes”, the “Ip,i/Ip,f peak current ratio vs. reaction time” value (ds-DNA [1]; Mb films, 4% styrene or 4% toluene + 2 mM hydrogen peroxide, over 45 min) was “linear increases” and the “SWV peak height for reduction of Co(bpy)3^3+ at 0.04 V vs. SCE” value (ds-DNA [1]; Mb/ST-ds-DNA films, 4% styrene and 2 mM H2O2, 37° C., pH 5.5, 20 μM Co(bpy)3^3+) was “decreased with incubation time”. The “Slope of Ip,i/Ip,f peak ratio vs. time, compared with Mb films” value (ds-CT-DNA) was “smaller slopes”, the “Dependence of catalytic SWV peak height on styrene concentration” value (ds-DNA [2]; Mb/DNA films activated by H2O2, styrene 1-4%) was “did not depend on styrene concentration between 1-4%” and the “Catalytic SWV oxidation peak current (DNA damage)” value (ds-DNA [2]; Mb/DNA films, 37° C., pH 5.5, with 0.2 mM H2O2, 2% styrene, 2% toluene or 0.2 mM benzaldehyde, read in 50 μM Ru(bpy)3^2+) was “increased with reaction time”. For the same molecule, the “Catalytic SWV oxidation peak current (DNA damage)” value (ds-DNA [2]; ST-DNA/Mb films, 2% styrene but no H2O2) was “No significant increases in peak current or trends with incubation time”.
